{
  "source": "ChEMBL document CHEMBL1150248",
  "about": "“Halogenated derivatives QSAR model using spectral moments to predict haloacetic acids (HAA) mutagenicity” (Bioorg Med Chem, 2008)",
  "data": [
    {"test_system": "Salmonella typhimurium", "experiment": "Mutagenic activity in Salmonella Typhimurium TA100 without metabolic activation", "type": "toxicity, organism-based", "conditions": "salmonella enterica subsp. enterica serovar typhimurium", "values": [
      {"smiles": "O=C(O)C(Cl)(Cl)Br", "note": "[BROMODICHLOROACETIC ACID]", "Activity": "Non-toxic"},
      {"smiles": "O=C(O)C(Br)(Br)Br", "note": "[TRIBROMOACETIC ACID]", "Activity": "Non-toxic"},
      {"smiles": "O=C(O)C(Cl)(Cl)Cl", "note": "[TRICHLOROACETIC ACID]", "Activity": "Non-toxic"}
    ]}
  ]
}
